Patent publication US20100221398A1, “PRESERVATIVE” (priority 2007, published 2010)

Columns and labels:
[1] = tested on: Aspergillus niger strain N402 conidiospores; test: Spoilage of synthetic soft drink (ACM pH 4.0) with 300 ppm sorbic acid; type: cell-based; details: 300 ppm sorbic acid (2.68 mM) without PadA1 inhibitor, 28 days at 28 C
Procedure: Tests were carried out using ACM medium, pH 4.0, as a synthetic soft drink. Sorbic acid was added to the ACM, synthetic soft drink, at 300 ppm, which is the maximum level permitted in Europe.
The method used involved placing 10 ml of ACM pH 4.0+300 ppm sorbic acid (2.68 mM) in glass bottles (all experiments were carried out in triplicate) and inncoculating each 10 mls with 1000 conidiospores per ml of Aspergillus niger strain N402. Growth was measured after 28 days incubation at 28° C. PadA1 inhibitors of Formula I were added at 0, 0.025 mM, 0.05 mM, 0.1 mM, 0.15 mM, 0.2 mM, 0.3 mM, 0.4 mM, 0.5 mM, 0.6 mM, 0.8 mM, 1 mM.

A. niger conidiospores = test: Mould growth in bottles containing 1 mM 4-MCA + 1 mM putative inhibitor; type: cell-based, Aspergillus niger; details: 1 mM 4-MCA + 1 mM compound
Procedure: (§1) All compounds were tested to see if they prevented the degradation of 4-MCA by adding 10^6 A. niger conidiospores/ml to ACM medium at pH 4.0 containing 1 mM 4-methylcinnamic acid+1 mM putative inhibitor. Bottles were incubated at 28° C. and shaken at 120 rpm on an orbital shaker. Samples were taken at 5 and 72 hours.
Furthermore, other compounds generally more mould-toxic than the compounds listed in Table 2, were not able to inhibit mould growth when allied with 4-MCA at 1 mM e.g. (2,4-decadienal).

[2] = tested on: PadA1 activity in A. niger conidiospores; test: 4-MCA cloud disappearance (OD 600 nm) assay for PadA1 activity in mould spores; type: cell-based, Aspergillus niger; details: 1 mM 4-methylcinnamic acid + 1 mM putative inhibitor, 10^6 conidiospores/ml, ACM pH 4.0, 28 C, samples at 5 and 72 hours
Procedure: FIG. 2—illustrates the disappearance of the dense cloud of 4-methylcinnamic acid after addition of A. niger spores. The strain of A. niger used is A. niger N402. 10^6 A. niger conidiospores/ml were added to ACM medium (Aspergillus Complete Medium—which contains per one litre of water, 20 g glucose, 1.5 g casamino acids, 2 g bacteriological peptone, 1.5 g yeast extract, 6 g […], 0.52 g potassium chloride, 0.52 g magnesium sulphate heptahydrate, 1.52 g potassium orthophosphate, 1 mg ferrous sulphate, 1 mg zinc sulphate) at pH 4.0 containing 1 mM 4-methylcinnamic acid at time 0. Replicate cultures of 10 mls medium in 30 ml sealed bottles were incubated at 28° C. and shaken at 120 rpm on an orbital shaker. Each point represents the mean value of two bottles removed, sampled, and tested in a spectrophotometer at 600 nm;
10^6 A. niger conidiospores/ml were added to ACM medium at pH 4.0 containing 1 mM 4-methylcinnamic acid at time 0 (control—circles). Replicate cultures contained 1 mM 4-methylcinnamic acid+1 mM cinnamaldehyde (squares). Bottles were incubated at 28° C. and shaken at 120 rpm on an orbital shaker.
In the examples below a carboxylic acid similar to sorbic acid was used as it has unexpected properties which allow it to be easily assayed. The acid used was 4-methylcinnamic acid (4-MCA), which like sorbic acid is degraded by A. niger spores.
Unexpectedly 4-MCA forms a dense white cloud when added to water or growth media for moulds (such as ACM). The opacity of the cloud, when measured at an OD of 600 nm, is directly proportional to the concentration of 4-MCA. This makes it easy to assay for changes in 4-MCA levels. Up until now degradation of 4-MCA and sorbic acid has been determined through the detection of the volatile products produced after decarboxylation. The volatile products can be detected by using GCMS (Gas Chromatography/Mass Spectrometry), which is a slow and time consuming process.
It is understood that PadA1 in the germinating mould spores degrades the 4-MCA causing the white cloud to progressively disappear. Cloud disappearance is also accompanied by appearance of 4-methylstyrene in the headspace above the liquid medium (as illustrated in FIG. 3), which is measured by GCMS.
as §1

[3] = tested on: A. niger N402 conidiospores; test: MIC determination in ACM medium pH 4.0; type: cell-based, Aspergillus niger; details: 1000 A. niger N402 conidiospores/ml, ACM pH 4.0, 28 C, 28 days, triplicate
Procedure: The possibility that the compounds found to inhibit 4-MCA degradation were acting as toxic agents was examined, by determination of their MIC (Minimum Inhibitory Concentration) values. The MIC value is the lowest concentration of inhibitor that will completely prevent growth of a microbe. In this case, MIC values were determined by preparation of a triplicate series of bottles of ACM medium (pH 4.0 10 mls) each bottle containing progressively higher concentrations of an inhibitor. Bottles were inoculated with 1000 A. niger N402 conidiospores/ml and were incubated at 28° C. for 28 days. The MIC was the lowest concentration of inhibitor preventing mould growth in all three replicates, and any other higher concentration of inhibitor.

CC=CC=CC(=O)O [sorbic acid, 2,4-hexadienoic acid]
prevention of spoilage by A. niger conidiospores of the synthetic soft drink, sorbic acid alone [1]: insufficient to prevent spoilage

CCCCCC=CC=CC=O [2,4-decadienal]
mould growth in bottles with 4-MCA + compound (A. niger conidiospores): Mould growth occurred | inhibition of degradation of 4-MCA by germinating conidiospores of A. niger [2]: does not block PadA1 activity | MIC (Minimum Inhibitory Concentration), comparison in words [3]: lower MIC than any of the compounds listed on Table 2

O=CC#Cc1ccccc1 [phenyl propargyl aldehyde]
inhibition of degradation of 4-MCA by germinating conidiospores of A. niger [2]: inhibited degradation

O=C(O)C#Cc1ccccc1 [Phenyl propiolic acid]
inhibition of degradation of 4-MCA by germinating conidiospores of A. niger [2]: inhibited degradation

O=CC=Cc1ccccc1 [Cinnamaldehyde]
inhibition of degradation of 4-MCA by germinating conidiospores of A. niger [2]: inhibits the degradation

CCC=CC=CC=O [2,4-Heptadienal]
mould growth in bottles with 4-MCA + compound (A. niger conidiospores): not
